Measurements: patent US11660311B2, “Cyclic dinucleotides as anticancer agents” (priority 2017, dated 2023)
Read-outs that look alike come from different tables or passages of the source.

Assays:
[1] = target: T1, STING AQ: His-TVMV-S-hSTING(155-341)-G230A-R293Q (Homo sapiens, UniProt Q86WV6, G230A/H232R/R293Q); assay: STING HTRF Binding Assay, STING AQ; settings: 20 nM His-tagged STING cytoplasmic domain, 40 nM fluorescein-labeled cGAMP analog probe, one hour; read-out: HTRF Binding Assays IC50 (μM) STING AQ
T1 construct: STING AQ: His-TVMV-S-hSTING(155-341)-G230A-R293Q
T1 sequence (Q86WV6 with tags, fused parts or gaps G230A/H232R/R293Q): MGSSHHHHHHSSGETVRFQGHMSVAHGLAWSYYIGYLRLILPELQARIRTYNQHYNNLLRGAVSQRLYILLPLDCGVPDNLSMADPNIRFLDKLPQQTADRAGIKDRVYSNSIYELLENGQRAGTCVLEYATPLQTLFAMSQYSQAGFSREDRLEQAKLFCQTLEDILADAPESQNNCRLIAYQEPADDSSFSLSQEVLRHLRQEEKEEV
Description: (§1) A time resolved FRET-based competition binding assay was used to assess test article binding to STING WT and STING AQ. His-tagged STING cytoplasmic domain (WT or AQ) at a concentration of 20 nM was incubated with 2.5 nM Tb-labeled anti-His antibody, test compound, and fluorescein-labeled cGAMP analog probe (BioLog cat. no. C195) at a concentration of 200 nM (STING WT) or 40 nM (STING AQ) in PBS containing 0.005% Tween-20 and 0.1% BSA for one hour. Fluorescence at 495 nm and 520 nm was measured using an EnVision microplate reader to quantify FRET between Tb-labeled anti-His antibody and fluorescein-labeled probe. Background was defined as the signal obtained in the absence of STING protein, and background subtracted FRET ratios were normalized to the maximum signal obtained in the absence of test compound. These values were converted to a percent inhibition. Percent inhibition was determined for test compounds at 11 concentrations. The IC50, defined as the concentration of competing test compound needed to reduce specific binding of the probe by 50%, was calculated using the 4 parameter logistic equation to fit the data

[2] = tested on: NF-κB pathway in THP1-Dual STING reporter cells; assay: STING THP1 Reporter Assay, NF-κB pathway (SEAP); assay type: cell-based, human; settings: 100% = 100 μM cGAMP
Source text: (§2) THP1-Dual™ cells were derived from the human THP-1 monocyte cell line by stable integration of two inducible reporter constructs. To this end, THP1-Dual™ cells allow the simultaneous study of the NF-κB pathway, by monitoring the activity of SEAP, and the IRF pathway by assessing the activity of a secreted luciferase (Lucia). Both reporter proteins are readily measurable in the cell culture supernatant when using QUANTI-Blue™, a SEAP detection reagent, and QUANTI-Luc™, a luciferase detection reagent.
(§3) THP1-Dual™ cells induce the activation of NF-κB in response to STING agonists. They also trigger the IRF pathway upon stimulation with STING agonists, such as cGAMP. Here, the THP-1-Dual cells were used to assess STING binders for function on the cellular level.
(§4) Serial dilutions of compounds in DMSO were added to low volume 384 well plates at 100 nl/well using an ECHO acoustic dispenser (Labcyte, model 550) to achieve final starting concentration of 100 μM in cell suspension. […] One column of the plate was reserved for treatment with cGAMP at 100 μM for 100% activation calculation and one column for no treatment (DMSO only) for baseline activation. Plates were then incubated in 37° C. incubator at 5% CO2 for 20 hours.
(§5) In the SEAP assay, 5 μl of 2× QuantiBlue (Invivogen, cat #Rep-qb2) is added to 384 well black plates seeded with THP1 cells and incubated at 37° C. for 2 hours. Plates were read on the Envision (Perkin Elmer) at 620 nm wavelength (OD620). In the luciferase assay, 5 μl of Quantiluc (Invivogen, Rep-qlc2) is added to white 384 well plates seeded with THP1 cells and read at 5 minutes on the Envision (Perkin Elmer) using a luminescence protocol (RLU). For both cell lines, 100% activation was determined by value (RLU) of THP-1 Dual STING cells stimulated with 100 μM cGAMP (Invivogen, cat #TLRL-NACGA23-5).

[3] = target: T2, STING WT: His-TVMV-S-hSTING(155-341)-H232R (Homo sapiens, UniProt Q86WV6, H232R); assay: STING HTRF Binding Assay, STING WT; settings: 20 nM His-tagged STING cytoplasmic domain, 200 nM fluorescein-labeled cGAMP analog probe, one hour; read-out: HTRF Binding Assays IC50 (μM) STING WT
T2 construct: STING WT: His-TVMV-S-hSTING(155-341)-H232R
T2 sequence (Q86WV6 with tags, fused parts or gaps H232R): as the sequence (Q86WV6 with tags, fused parts or gaps G230A/H232R/R293Q) above, with A99G, Q162R counted along it
Description: as §1

[4] = tested on: IRF pathway in THP1-Dual STING reporter cells; assay: STING THP1 Reporter Assay, IRF pathway (secreted Lucia luciferase); assay type: cell-based, human; settings: 100% = 100 μM cGAMP
Source text: as §2, §3, §4, §5

[5] = THP1-Dual cells, 10% human plasma, 20 hours, SEAP, read-out: THP1 Reporter Assays EC50 (μM) NFkB
[6] = read-out: THP1 Reporter Assays EC50 (μM) IRF3, THP1-Dual cells, 10% human plasma, 20 hours, luciferase
[7] = Homo sapiens, THP1-Dual, 20 h, read-out: THP1 Reporter Assays EC50 (μM) NFkB, THP1-Dual cells, 10% human plasma, 20 hours, SEAP
[8] = Homo sapiens, THP1-Dual, 20 h, read-out: THP1 Reporter Assays EC50 (μM) IRF3, THP1-Dual cells, 10% human plasma, 20 hours, luciferase
[9] = read-out: THP1 Reporter Assays EC50 (μM) NFkB, THP1-Dual cells, 10% human plasma, 20 hours, SEAP
[10] = Homo sapiens, THP1-Dual, 20 h, THP1-Dual cells, 10% human plasma, 20 hours, SEAP, read-out: THP1 Reporter Assays EC50 (μM) NFkB
[11] = Homo sapiens, THP1-Dual, 20 h, THP1-Dual cells, 10% human plasma, 20 hours, luciferase, read-out: THP1 Reporter Assays EC50 (μM) IRF3

## Nc1ncnc2c1ncn2[C@@H]1O[C@@H]2COP(=O)(S)O[C@H]3[C@@H](F)[C@H](n4cnc5c4ncn4ncnc54)O[C@@H]3COP(=O)(S)O[C@H]2[C@H]1F (single isomer, unassigned) [Example 12-2]
[1]
  IC50: 0.002 µM
[2]; [5]
  EC50: 2.64 µM
[3]
  IC50: 0.01 µM
[4]; [6]
  EC50: 0.2 µM

## Nc1ncnc2c1ncn2[C@@H]1O[C@@H]2COP(=O)(S)O[C@H]3[C@@H](F)[C@H](n4cnc5c4ncn4ncnc54)O[C@@H]3COP(=O)(S)O[C@H]2[C@H]1F (single isomer, unassigned) [Example 12-3]
[1]
  IC50: 0.003 µM
[2]; [5]
  EC50: 2.65 µM
[3]
  IC50: 0.02 µM
[4]; [6]
  EC50: 0.27 µM

## Nc1ncnc2c1ncn2[C@@H]1O[C@@H]2COP(=O)(S)O[C@H]3[C@@H](F)[C@H](n4cnc5c4ncn4ncnc54)O[C@@H]3COP(=O)(S)O[C@H]2[C@H]1F (single isomer, unassigned) [Example 12-4]
[1]
  IC50: 0.005 µM
[2]; [5]
  EC50: 1.09 µM
[3]
  IC50: 0.002 µM
[4]; [6]
  EC50: 0.06 µM

## Nc1ncnc2c1ncn2[C@@H]1O[C@@H]2COP(=O)(S)O[C@H]3[C@@H](O)[C@H](n4nnc5c([N+](=O)[O-])cccc54)O[C@@H]3COP(=O)(O)O[C@H]2[C@H]1F (single isomer, unassigned) [Example 13-1]
[1]
  IC50: 1.44 µM
[2]; [7]
  EC50: > 100 µM
[3]
  IC50: 8.45 µM
[4]; [8]
  EC50: > 100 µM

## Nc1ncnc2c1ncn2[C@@H]1O[C@@H]2COP(=O)(S)O[C@H]3[C@@H](O)[C@H](n4nnc5c([N+](=O)[O-])cccc54)O[C@@H]3COP(=O)(O)O[C@H]2[C@H]1F (single isomer, unassigned) [Example 13-2]
[1]
  IC50: 0.45 µM
[2]; [9]
  EC50: > 100 µM
[3]
  IC50: 5.49 µM
[4]; [6]
  EC50: > 100 µM

## Nc1ncnc2c1ncn2[C@@H]1O[C@@H]2COP(=O)(S)O[C@H]3[C@@H](F)[C@H](n4cnc5c4ncn4ccnc54)O[C@@H]3COP(=O)(S)O[C@H]2[C@H]1F (single isomer, unassigned) [Example 21-1]
[1]
  IC50: 0.01 µM
[2]; [9]
  EC50: 34.6 µM
[3]
  IC50: 0.32 µM
[4]; [6]
  EC50: 28.2 µM

## Nc1ncnc2c1ncn2[C@@H]1O[C@@H]2COP(=O)(S)O[C@H]3[C@@H](F)[C@H](n4cnc5c4ncn4ccnc54)O[C@@H]3COP(=O)(S)O[C@H]2[C@H]1F (single isomer, unassigned) [Example 21-2]
[1]
  IC50: 0.01 µM
[2]; [9]
  EC50: 0.56 µM
[3]
  IC50: 0.02 µM
[4]; [6]
  EC50: 0.13 µM

## Nc1ncnc2c1ncn2[C@@H]1O[C@@H]2COP(=O)(S)O[C@H]3[C@@H](F)[C@H](n4cnc5c4ncn4ccnc54)O[C@@H]3COP(=O)(S)O[C@H]2[C@H]1F (single isomer, unassigned) [Example 21-3]
[1]
  IC50: 0.01 µM
[2]; [9]
  EC50: 0.53 µM
[3]
  IC50: 0.02 µM
[4]; [6]
  EC50: 0.14 µM

## Nc1ncnc2c1ncn2[C@@H]1O[C@@H]2COP(=O)(S)O[C@H]3[C@@H](F)[C@H](n4cnc5c4ncn4ccnc54)O[C@@H]3COP(=O)(S)O[C@H]2[C@H]1F (single isomer, unassigned) [Example 21-4]
[1]
  IC50: 0.01 µM
[2]; [9]
  EC50: 0.67 µM
[3]
  IC50: 0.01 µM
[4]; [6]
  EC50: 0.28 µM

## Nc1ncnc2c1ncn2[C@@H]1O[C@@H]2COP(=O)(O)O[C@H]3[C@@H](O)[C@H](n4cnc5c(=O)n6ccnc6[nH]c54)O[C@@H]3COP(=O)(O)O[C@H]2[C@H]1F [Example 2, (1S,6R,8R,9R,10R,15R,17R,18R)-8-(6-amino-9H-purin-9-yl)-9-fluoro-3,12,18-trihydroxy-17-{9-oxo-3H,4H,9H-imidazo[1,2-a]purin-3-yl}-2,4,7,11,13,16-hexaoxa-3λ^5,12λ^5-diphosphatricyclo[13.3.0.0^6,10]octadecane-3,12-dione]
[1]
  IC50: 0.01 µM
[2]; [7]
  EC50: 4.38 µM
[3]
  IC50: 0.04 µM
[4]; [8]
  EC50: 2.36 µM

## Nc1ncnc2c1ncn2[C@@H]1O[C@@H]2COP(=O)(O)O[C@H]3[C@@H](F)[C@H](n4cnc5c4ncn4ccnc54)O[C@@H]3COP(=O)(O)O[C@H]2[C@H]1F [Example 3]
[1]
  IC50: 0.02 µM
[2]; [10]
  EC50: 24.4 µM
[3]
  IC50: 0.04 µM
[4]; [11]
  EC50: 5.76 µM

## NC(=O)c1cccc2c1nnn2[C@@H]1O[C@@H]2COP(=O)(O)O[C@H]3[C@@H](F)[C@H](n4cnc5c(N)ncnc54)O[C@@H]3COP(=O)(O)O[C@H]2[C@H]1F [Example 7, 1-[(1R,6R,8R,9R,10R,15R,17R,18R)-17-(6-amino-9H-purin-9-yl)-9,18-difluoro-3,12-dihydroxy-3,12-dioxo-2,4,7,11,13,16-hexaoxa-3λ^5,12λ^5-diphosphatricyclo[13.3.0.0^6,10]octadecan-8-yl]-1H-1,2,3-benzotriazole-4-carboxamide]
[1]
  IC50: 0.31 µM
[2]; [7]
  EC50: > 100 µM
[3]
  IC50: 11.9 µM
[4]; [11]
  EC50: > 100 µM

## NC(=O)c1cccc2c1nnn2[C@@H]1O[C@@H]2COP(=O)(O)O[C@H]3[C@@H](F)[C@H](n4cnc5c4ncn4ccnc54)O[C@@H]3COP(=O)(O)O[C@H]2[C@H]1F [Example 9]
[1]
  IC50: 0.42 µM
[2]; [7]
  EC50: > 100 µM
[3]
  IC50: 84.1 µM
[4]; [11]
  EC50: > 100 µM

## NC(=O)c1cc([C@@H]2O[C@@H]3COP(=O)(O)O[C@H]4[C@@H](F)[C@H](n5cnc6c(N)ncnc65)O[C@@H]4COP(=O)(S)O[C@H]3[C@H]2O)ccn1 (stereo partly drawn) [Example 14, 4-[(1R,6R,8S,9S,10S,15R,17R,18R)-17-(6-amino-9H-purin-9-yl)-18-fluoro-3,9-dihydroxy-3,12-dioxo-12-sulfanyl-2,4,7,11,13,16-hexaoxa-3λ^5,12λ^5-diphosphatricyclo[13.3.0.0^6,10]octadecan-8-yl]pyridine-2-carboxamide]
[1]
  IC50: 1.14 µM
[2]; [10]
  EC50: > 100 µM
[3]
  IC50: > 100 µM
[4]; [11]
  EC50: > 100 µM

## Nc1nc2c(ncn2[C@@H]2O[C@@H]3COP(=O)(O)O[C@H]4[C@@H](O)[C@H](n5cnc6c(N)ncnc65)O[C@@H]4COP(=O)(S)O[C@H]3[C@H]2O)c(=O)[nH]1 (stereo partly drawn) [Example 15, (1S,8R,9R,10S,15R,17R,18R)-8-(2-amino-6-oxo-6,9-dihydro-1H-purin-9-yl)-17-(6-amino-9H-purin-9-yl)-3,9,18-trihydroxy-12-sulfanyl-2,4,7,11,13,16-hexaoxa-3λ^5,12λ^5-diphosphatricyclo[13.3.0.0^6,10]octadecane-3,12-dione]
[1]
  IC50: 0.83 µM
[2]; [10]
  EC50: > 100 µM
[3]
  IC50: 9.55 µM
[4]; [11]
  EC50: > 100 µM

## Nc1nc2c(ncn2[C@@H]2O[C@@H]3COP(=O)(O)O[C@H]4[C@@H](O)[C@H](n5cnc6c5ncn5ccnc65)O[C@@H]4COP(=O)(S)O[C@H]3[C@H]2O)c(=O)[nH]1 (stereo partly shown) [Example 16]
[1]
  IC50: 5.65 µM
[2]; [10]
  EC50: > 100 µM
[3]
  IC50: 96 µM
[4]; [11]
  EC50: > 100 µM
